According to US10894803B2, “Multi-functionalized polysaccharide compounds and use thereof for targeting the cation-independent mannose 6-phosphate receptor” (NANOMEDSYN, priority 2015, dated 2021):
pIC50: −log10 of the molar value. Where two headings read alike, the source gives them in different places.

Key:
[1] = test system: myoblasts from an adult patient suffering from Pomp disease; assay: Cellular maturation of internalized GAA by Western blot; assay type: cell-based, human; settings: 50 nM, 48 h incubation, healthy subject myoblasts = 100%
Method: The myoblasts are incubated for 48 h in the presence of 50 nM rhGAA or of the rhGAA-M6Pn-α(1,2)-Man-Ethyloxyamino conjugate (28) (conjugate of formula (III)), then lysed and the proteins are extracted. The cellular maturation of the internalized GAA enzyme in the myoblasts of patients suffering from Pomp disease is studied by the SDS polyacrylamide gel separation technique, followed by immunodetection of the GAA by Western blot with an anti-human GAA antibody (anti-LYAG, Genetex) or an anti-human actin antibody (Invitrogen). […] This experiment is representative among two experiments. The thick arrow in FIG. 4 indicates the intermediate form of GAA. The black arrow indicates the mature form of GAA (60-70 kDa).
The mature form of 60 kDa is quantified by considering the band present in the myoblasts originating from a healthy subject to be 100%. The expression of GAA 60 kDa in the patient myoblasts corresponds to 1% of the GAA of a healthy subject and is not increased in the myoblasts treated with rhGAA. Conversely, the treatment with the rhGAA-M6Pn-α(1,2)-Man-Ethyloxyamino conjugate (28) increases the 60-70 kDa band to 47% of the GAA of a healthy subject. […] This activity is important for an application in the treatment of Pomp disease by enzyme therapy, but can also be applicable to all lysosomal diseases.

[2] = test system: myoblasts of patients suffering from the adult form of Pomp disease; assay: Internalization: GAA catalytic activity (4-MUG substrate) in cell extracts of treated myoblasts; assay type: cell-based, human; settings: 50 nM, 48 h incubation; compared with rhGAA
Method: The myoblast-type cells originating from an adult patient suffering from Pomp disease are maintained in primary culture.
The catalytic activity of GAA is measured in the cell extracts using the synthetic substrate 4-methylumbelliferyl-α-D-glucopyranoside (4-MUG). This substrate and the molecular weight standards are obtained from Sigma. The GAA activity in the cell extracts (20 μl) is measured in a reaction volume of 75 μl containing 50 mM citric acid, 115 mM K2HPO4, 110 mM KCl, 10 mM NaCl, pH 5.0, with 6 mM 4-MUG, for 10 min at ambient temperature. The reaction is stopped with 75 μl of 0.1 M Tris HCl, pH 8. The fluorescence is read with an excitation filter at 355 nm and an emission filter at 460 nm in 96-well plates, and compared to a standard curve obtained with 4-methylumbelliferone. The catalytic activity is expressed per mg of protein. Mean±standard deviation.

[3] = target: CI-M6PR (Homo sapiens (Human), UniProt P11717); assay: Competitive binding of M6P analogs to biotinylated CI-M6PR on adsorbed pentamannose 6-phosphate (PMP); settings: for Relative affinity: relative to M6C-Ethyl-NH2 taken as reference = 1
CI-M6PR, sequence (P11717 41-2491): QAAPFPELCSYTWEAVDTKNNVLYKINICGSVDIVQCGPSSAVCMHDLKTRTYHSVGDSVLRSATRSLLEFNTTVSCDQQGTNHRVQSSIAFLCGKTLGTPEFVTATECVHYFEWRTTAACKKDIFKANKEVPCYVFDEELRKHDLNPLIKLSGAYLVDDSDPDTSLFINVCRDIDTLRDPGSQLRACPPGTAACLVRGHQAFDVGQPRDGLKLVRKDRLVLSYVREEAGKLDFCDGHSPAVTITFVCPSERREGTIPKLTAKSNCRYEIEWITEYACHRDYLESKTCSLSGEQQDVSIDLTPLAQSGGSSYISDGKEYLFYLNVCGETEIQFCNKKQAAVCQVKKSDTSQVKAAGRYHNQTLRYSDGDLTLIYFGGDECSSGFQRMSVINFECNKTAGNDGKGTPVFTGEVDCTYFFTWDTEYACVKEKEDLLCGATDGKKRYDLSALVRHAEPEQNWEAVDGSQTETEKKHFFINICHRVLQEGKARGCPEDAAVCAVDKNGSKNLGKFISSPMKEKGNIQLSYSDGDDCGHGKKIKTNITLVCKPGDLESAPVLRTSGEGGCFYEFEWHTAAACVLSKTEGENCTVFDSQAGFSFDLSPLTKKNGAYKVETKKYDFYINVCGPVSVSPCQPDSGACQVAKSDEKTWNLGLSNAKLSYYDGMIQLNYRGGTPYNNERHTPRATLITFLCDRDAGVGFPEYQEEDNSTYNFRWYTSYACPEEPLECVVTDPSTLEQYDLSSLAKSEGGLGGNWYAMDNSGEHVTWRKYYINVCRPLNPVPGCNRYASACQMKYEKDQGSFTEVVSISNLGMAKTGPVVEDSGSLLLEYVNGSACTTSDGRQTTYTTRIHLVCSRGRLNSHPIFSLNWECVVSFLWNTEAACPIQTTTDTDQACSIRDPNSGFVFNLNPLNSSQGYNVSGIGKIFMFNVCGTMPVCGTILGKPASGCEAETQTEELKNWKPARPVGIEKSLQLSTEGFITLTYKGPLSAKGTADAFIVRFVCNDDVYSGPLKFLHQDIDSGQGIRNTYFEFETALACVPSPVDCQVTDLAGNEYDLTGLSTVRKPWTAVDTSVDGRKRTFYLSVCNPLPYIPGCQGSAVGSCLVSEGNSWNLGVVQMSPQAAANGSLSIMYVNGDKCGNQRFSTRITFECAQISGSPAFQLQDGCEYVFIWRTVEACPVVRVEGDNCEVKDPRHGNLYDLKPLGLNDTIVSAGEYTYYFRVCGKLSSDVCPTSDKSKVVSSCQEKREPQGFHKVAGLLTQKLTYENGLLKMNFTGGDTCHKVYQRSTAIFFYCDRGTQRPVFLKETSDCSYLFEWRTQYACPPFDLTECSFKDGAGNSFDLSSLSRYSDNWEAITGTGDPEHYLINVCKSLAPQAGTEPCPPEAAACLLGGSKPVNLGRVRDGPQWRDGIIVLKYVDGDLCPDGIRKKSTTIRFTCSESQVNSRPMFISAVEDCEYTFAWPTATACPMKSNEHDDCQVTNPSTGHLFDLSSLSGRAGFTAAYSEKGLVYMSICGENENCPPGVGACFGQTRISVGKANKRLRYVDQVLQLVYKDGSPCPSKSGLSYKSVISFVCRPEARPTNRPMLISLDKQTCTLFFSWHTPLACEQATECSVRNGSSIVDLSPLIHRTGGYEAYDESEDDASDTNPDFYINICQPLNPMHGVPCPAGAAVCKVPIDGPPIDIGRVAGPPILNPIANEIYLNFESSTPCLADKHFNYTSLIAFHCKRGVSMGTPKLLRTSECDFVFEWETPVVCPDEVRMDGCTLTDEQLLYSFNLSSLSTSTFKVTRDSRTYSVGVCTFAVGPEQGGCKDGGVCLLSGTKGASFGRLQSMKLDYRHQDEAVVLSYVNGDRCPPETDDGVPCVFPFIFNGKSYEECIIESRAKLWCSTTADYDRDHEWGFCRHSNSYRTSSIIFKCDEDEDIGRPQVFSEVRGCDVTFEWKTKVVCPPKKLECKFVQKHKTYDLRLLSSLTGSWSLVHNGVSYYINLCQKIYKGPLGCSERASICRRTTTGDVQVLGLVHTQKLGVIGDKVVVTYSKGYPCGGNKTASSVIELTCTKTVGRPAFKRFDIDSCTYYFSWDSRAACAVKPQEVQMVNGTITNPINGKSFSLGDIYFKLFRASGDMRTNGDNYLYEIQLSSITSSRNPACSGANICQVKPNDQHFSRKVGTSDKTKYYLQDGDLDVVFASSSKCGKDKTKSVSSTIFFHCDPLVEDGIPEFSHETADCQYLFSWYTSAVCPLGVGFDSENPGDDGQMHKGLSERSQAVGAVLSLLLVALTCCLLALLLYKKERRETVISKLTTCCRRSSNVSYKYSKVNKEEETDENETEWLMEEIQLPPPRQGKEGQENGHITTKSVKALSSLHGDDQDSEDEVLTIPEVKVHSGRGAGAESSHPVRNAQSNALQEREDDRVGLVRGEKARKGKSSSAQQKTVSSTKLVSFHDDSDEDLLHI
Method: 96-Well plates (Maxisorp Nunc) are incubated overnight at 4° C. with 200 μl of PMP (pentamannose 6-phosphate) at the concentration of 200 μg·ml^−1, in carbonate buffer (NaHCO3/Na2CO3 at 0.1M, pH 9.6). The following day, the solution containing the residual PMP is discarded and the wells are saturated, for 1 h at ambient temperature, with 360 μl of 1% gelatin (Type A from Porcine Skin) diluted in PBS (1.9 mM NaH2PO4, 8.1 mM Na2PO4 and 154 mM NaCl, pH 7.4). The wells are then rinsed five times with PBS to which 0.2% gelatin has been added. All the washes and also the dilutions are carried out in the solution of PBS to which 0.2% gelatin has been added. The M6P analogs to be tested at the various concentrations (from 10^−2 to 10^−7 M) are pre-incubated in the presence of pre-biotinylated CI-M6PR (M6PRb) ([…]) for 20 min, then 200 μl of the mixture are incubated in the wells for 2 h, at ambient temperature. After three washes, the wells are incubated for 1 h with a streptavidin-peroxidase solution (250 μl per well; 3.10^−8 M). After three more washes, 200 μl of a solution of OPD (o-phenylenediamine, 1 mg·ml^−1 in citrate buffer, pH 5.0, and 1 μl 30% H2O2.ml^−1; Sigma Aldrich) are added. After incubation for 20 min in the dark at ambient temperature, the optical densities are measured at the wavelength of 450 nm.
The conjugate of formula (III) is evaluated for its affinity with CI-M6PR. The binding affinity of rhGAA and of the rhGAA-M6Pn-α(1,2)-Man-Ethyloxyamino conjugate (28) was evaluated by means of a competitive binding technique with CI-M6PR described in example 2 and compared with the affinity of M6P.

[4] = inhibition of CI-M6PR binding to adsorbed PMP, Table 1, read-out: IC50
[5] = competitive binding technique of example 2, Example 4 experiments, read-out: 50% inhibitory concentration (IC50), affinity for CI-M6PR

Row | Compound | mature form of GAA (60-70 kDa band), % of the GAA of a healthy subject [1] | pIC50 [3, 4] | Relative affinity [3] | pIC50 [3, 5] | further results
1 | rhGAA-M6Pn-α(1,2)-Man-Ethyloxyamino (28): rhGAA functionalized on oligosaccharide chains with phosphonate disaccharide analog 28; conjugate of formula (III) | 47% |  |  |  | cell penetration of GAA measured through catalytic activity on 4-MUG [2]: significantly increases
2 | NCCO[C@H]1OC(CCC(=O)O)[C@@H](O)[C@H](O)C1O (stereo partly drawn) [M6C-Ethyl-NH2] |  | 4.00 | 1 |  | 
3 | O=C[C@@H](O)[C@@H](O)[C@H](O)[C@H](O)COP(=O)(O)O [Compound M6P, mannose 6-phosphate] |  |  |  | 4.52 | 
4 | NCCO[C@H]1OC(CCP(=O)(O)O)[C@@H](O)[C@H](O)C1O (stereo partly drawn) [M6Pn-Ethyl-NH2] |  | 4.54 | 3.4 |  | 
5 | rhGAA: recombinant human acid alpha-glucosidase produced in CHO cells, approximately 110 000 Da | not increased |  |  | 6.52 | affinity for CI-M6PR, times lower than the rhGAA-M6Pn-α(1,2)-Man-Ethyloxyamino conjugate (28) ([3]; ratio of IC50 values): 5.5 times
6 | NCCO[C@H]1O[C@H](CO)[C@@H](O)[C@H](O)[C@@H]1O[C@H]1O[C@H](CCC(=O)O)[C@@H](O)[C@H](O)[C@@H]1O [Compound 24, aminoethyl 6,7-dideoxy-7-hydroxycarbonyl-α-D-manno-heptopyranosyl-(1→2)-α-D-mannopyranoside] |  | 4.77 | 5.8 |  | 
